From patent US8658646B2, “Pyrrolopyrazine kinase inhibitors” (Hoffmann-LaRoche Inc., priority 2011, dated 2014)

Molecular target: T1, JAK3: Recombinant human kinase domain (Homo sapiens, UniProt P52333)
T1 construct: JAK3: Recombinant human kinase domain from Millipore (Cat #14-629) or prepared; purchased Millipore 14-629
Assay: Determination of IC50 of Janus Kinase (JAK) inhibition, radioactive end-point 33P-ATP assay, JAK3
Type: biochemical
Conditions: ATP 1.5 uM, peptide 50 uM, 20 minutes, read-out: JAK3-INHIB-DR/v1~NO ADDITIVE~Enzyme_Conc = 100
Description: Determination of IC50 of Janus Kinase (JAK) Inhibition:
Assay conditions used are described below: • Assay Buffer: JAK Kinase Buffer: 50 mM Hepes [pH 7.2], 10 mM MgCl2, 1 mM DTT, 1 mg/ml BSA. The assay was carried out in this buffer. • Assay Format The kinase activity of all three JAK kinases was measured using a radioactive, end-point assay and with trace amounts of ^33P-ATP. The assays were carried out in 96-well polypropylene plates. Experimental Method:
All concentrations were final in the reaction mixture and all incubations were carried at room temperature. […] Final concentration of DMSO in the reaction was 10%. • 2) Compounds were preincubated with enzyme (0.5 nM JAK3 (commercially available), 0.2 nM JAK3 (prepared), 1 nM JAK2, 5 nM JAK1) for 10 minutes. • 3) Reactions were initiated by the addition of a cocktail of the two substrates (ATP and peptide premixed in the JAK Kinase Buffer). […] JAK1 assay was carried out at an ATP concentration of 10 uM and a peptide concentration of 50 uM. • 4) The duration of the assay for JAK2 and JAK3 is 20 minutes. JAK1 assay was carried out for 40 minutes. With all three enzymes, reactions were terminated by the addition of 0.5M EDTA to a final concentration of 100 mM. • 5) 25 ul of terminated reactions were transferred to 150 ul of a 7.5% (v/v) slurry of streptavidin-coated sepharose beads in MgCl2- and CaCl2-free 1× Phosphate Buffered Saline containing 50 mM of EDTA in 96-well, 1.2 um MultiScreen-BV filter plates. • 6) After a 30-minute incubation, the beads were washed under vacuum with the following buffers: • a. 3 to 4 washes with 200 ul of 2M NaCl. • b. 3 to 4 washes with 200 ul of 2M NaCl plus 1% (v/v) phosphoric acid. • c. 1 wash with water. • 7) Washed plates were dried in a 60° C. oven for between 1 to 2 hours. • 8) 70 ul of Microscint 20 scintillation fluid was added to each well of filter plates and after at least 30 minutes of incubation, radioactive counts were measured in a Perkinelmer microplate scintillation counter.

T1 sequence (P52333 822-1111 limits assumed): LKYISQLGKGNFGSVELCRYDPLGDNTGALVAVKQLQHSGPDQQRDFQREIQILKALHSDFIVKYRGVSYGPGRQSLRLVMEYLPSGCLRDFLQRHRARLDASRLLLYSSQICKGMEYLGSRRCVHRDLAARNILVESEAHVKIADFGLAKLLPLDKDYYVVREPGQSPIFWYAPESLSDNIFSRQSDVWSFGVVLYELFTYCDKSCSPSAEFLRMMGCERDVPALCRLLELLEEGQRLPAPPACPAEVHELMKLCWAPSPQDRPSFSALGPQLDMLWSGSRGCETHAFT

IC50	SMILES
3.19 nM	CCC[C@@H](NC(=O)c1c[nH]c2ncc(-c3nn(C)c4cc(F)ccc34)nc12)C(=O)N1CC(F)C1 [Example I-59, 2-(6-Fluoro-1-methyl-1H-indazol-3-yl)-5H-pyrrolo[2,3-b]pyrazine-7-carboxylic acid [(R)-1-(3-fluoro-azetidine-1-carbonyl)-butyl]-amide]
16.8 nM	C[C@@H](NC(=O)c1c[nH]c2ncc(-c3nn(C)c4cc(F)ccc34)nc12)C(F)(F)Cc1ccccc1 [Example I-61, 2-(6-Fluoro-1-methyl-1H-indazol-3-yl)-5H-pyrrolo[2,3-b]pyrazine-7-carboxylic acid ((R)-2,2-difluoro-1-methyl-3-phenyl-propyl)-amide]
15.1 nM	C[C@@H](NC(=O)c1c[nH]c2ncc(-c3nn(C)c4cc(F)ccc34)nc12)c1nc(CC#N)co1 [Example I-62, 2-(6-Fluoro-1-methyl-1H-indazol-3-yl)-5H-pyrrolo[2,3-b]pyrazine-7-carboxylic acid [(R)-1-(4-cyanomethyl-oxazol-2-yl)-ethyl]-amide]
6.67 nM	C[C@@H](NC(=O)c1c[nH]c2ncc(-c3nn(C)c4cc(F)ccc34)nc12)[C@@H]1CCCO1 [Example I-63, 2-(6-Fluoro-1-methyl-1H-indazol-3-yl)-5H-pyrrolo[2,3-b]pyrazine-7-carboxylic acid [(R)-(S)-1-(tetrahydro-furan-2-yl)-ethyl]-amide]
13.3 nM	C[C@@H](NC(=O)c1c[nH]c2ncc(-c3nn(C)c4cc(F)ccc34)nc12)[C@H]1CCCO1 [Example I-64, 2-(6-Fluoro-1-methyl-1H-indazol-3-yl)-5H-pyrrolo[2,3-b]pyrazine-7-carboxylic acid [(R)-(R)-1-(tetrahydro-furan-2-yl)-ethyl]-amide]
285 nM	C[C@H](CC(=O)N1CCCC1)NC(=O)c1c[nH]c2ncc(-c3nn(C)c4cc(Cl)ccc34)nc12 [Example I-72, 2-(6-Chloro-1-methyl-1H-indazol-3-yl)-5H-pyrrolo[2,3-b]pyrazine-7-carboxylic acid ((R)-1-methyl-3-oxo-3-pyrrolidin-1-yl-propyl)-amide]
9.35 nM	CC(NC(=O)c1c[nH]c2ncc(-c3nn(C)c4cc(F)ccc34)nc12)[C@H]1C[C@H](C#N)C1 (stereo partly drawn) [Example I-74, 2-(6-Fluoro-1-methyl-1H-indazol-3-yl)-5H-pyrrolo[2,3-b]pyrazine-7-carboxylic acid [1-(trans-3-cyano-cyclobutyl)-ethyl]-amide]
12.7 nM	CC(NC(=O)c1c[nH]c2ncc(-c3nn(C)c4cc(F)ccc34)nc12)[C@H]1C[C@@H](C#N)C1 (stereo partly drawn) [Example I-76, 2-(6-Fluoro-1-methyl-1H-indazol-3-yl)-5H-pyrrolo[2,3-b]pyrazine-7-carboxylic acid [1-(cis-3-cyano-cyclobutyl)-ethyl]-amide]
15.1 nM	C[C@@H](NC(=O)c1c[nH]c2ncc(-c3nn(C)c4cc(F)ccc34)nc12)c1cc(C(F)(F)F)ccn1 [Example I-79, 2-(6-Fluoro-1-methyl-1H-indazol-3-yl)-5H-pyrrolo[2,3-b]pyrazine-7-carboxylic acid [(R)-1-(4-trifluoromethyl-pyridin-2-yl)-ethyl]-amide]

The next lines start with the compound.

SMILES	IC50
C[C@@H](NC(=O)c1c[nH]c2ncc(-c3ncn4cc(F)ccc34)nc12)c1ncco1 [Example I-58, 2-(6-Fluoro-imidazo[1,5-a]pyridin-1-yl)-5H-pyrrolo[2,3-b]pyrazine-7-carboxylic acid ((R)-1-oxazol-2-yl-ethyl)-amide]	2.31 nM
N#CC1CCN(C(=O)[C@H](NC(=O)c2c[nH]c3ncc(-n4ncc5cc(Cl)ccc54)nc23)C2CC2)CC1 [Example I-66, 2-(5-Chloro-indazol-1-yl)-5H-pyrrolo[2,3-b]pyrazine-7-carboxylic acid [(R)-2-(4-cyano-piperidin-1-yl)-1-cyclopropyl-2-oxo-ethyl]-amide]	2.17 nM
Cn1nc(-c2cnc3[nH]cc(C(=O)N[C@@H](C(=O)N4CCC(C#N)CC4)C4CC4)c3n2)c2cc(Cl)c(Cl)cc21 [Example I-67, 2-(5,6-Dichloro-1-methyl-1H-indazol-3-yl)-5H-pyrrolo[2,3-b]pyrazine-7-carboxylic acid [(R)-2-(4-cyano-piperidin-1-yl)-1-cyclopropyl-2-oxo-ethyl]-amide]	0.48 nM
N#CC1CCN(C(=O)[C@H](NC(=O)c2c[nH]c3ncc(-n4ncc5cc(Cl)c(Cl)cc54)nc23)C2CC2)CC1 [Example I-68, 2-(5,6-Dichloro-indazol-1-yl)-5H-pyrrolo[2,3-b]pyrazine-7-carboxylic acid [(R)-2-(4-cyano-piperidin-1-yl)-1-cyclopropyl-2-oxo-ethyl]-amide]	5.75 nM
C[C@@H](NC(=O)c1c[nH]c2ncc(-c3nn(C)c4c3CCC(C)(C)C4)nc12)C(=O)N1CC(C#N)C1 [Example I-70, 2-(1,6,6-Trimethyl-4,5,6,7-tetrahydro-1H-indazol-3-yl)-5H-pyrrolo[2,3-b]pyrazine-7-carboxylic acid [(R)-2-(3-cyano-azetidin-1-yl)-1-methyl-2-oxo-ethyl]-amide]	29.8 nM
Cc1ccc2c(-c3cnc4[nH]cc(C(=O)N[C@H](C)C(=O)N5CC(C#N)C5)c4n3)nn(C)c2c1 [Example I-82]	1.36 nM
C[C@@H](NC(=O)c1c[nH]c2ncc(-c3nn(C)c4cc(F)cc(F)c34)nc12)C(=O)N1CC(C#N)C1 [Example I-88, 2-(4,6-Difluoro-1-methyl-1H-indazol-3-yl)-5H-pyrrolo[2,3-b]pyrazine-7-carboxylic acid [(R)-2-(3-cyano-azetidin-1-yl)-1-methyl-2-oxo-ethyl]-amide]	1.57 nM
Cc1ccc2c(-c3cnc4[nH]cc(C(=O)N[C@H](C)C(=O)N5CC(C#N)C5)c4n3)nn(C)c2n1 [Example I-89, 2-(1,6-Dimethyl-1H-pyrazolo[3,4-b]pyridin-3-yl)-5H-pyrrolo[2,3-b]pyrazine-7-carboxylic acid [(R)-2-(3-cyano-azetidin-1-yl)-1-methyl-2-oxo-ethyl]-amide]	1.09 nM
C[C@@H](NC(=O)c1c[nH]c2ncc(-c3nn(CCO)c4cc(Cl)ccc34)nc12)C(=O)N1CC(C#N)C1 [Example I-90, 2-[6-Chloro-1-(2-hydroxy-ethyl)-1H-indazol-3-yl]-5H-pyrrolo[2,3-b]pyrazine-7-carboxylic acid [(R)-2-(3-cyano-azetidin-1-yl)-1-methyl-2-oxo-ethyl]-amide]	3.83 nM
CC(C)n1nc(-c2cnc3[nH]cc(C(=O)N[C@H](C)C(=O)N4CC(C#N)C4)c3n2)c2ccc(Cl)cc21 [Example I-91, 2-(6-Chloro-1-isopropyl-1H-indazol-3-yl)-5H-pyrrolo[2,3-b]pyrazine-7-carboxylic acid [(R)-2-(3-cyano-azetidin-1-yl)-1-methyl-2-oxo-ethyl)-amide]	3.13 nM
CCCn1nc(-c2cnc3[nH]cc(C(=O)N[C@H](C)C(=O)N4CC(C#N)C4)c3n2)c2ccc(Cl)cc21 [Example I-92, 2-(6-Chloro-1-propyl-1H-indazol-3-yl)-5H-pyrrolo[2,3-b]pyrazine-7-carboxylic acid [(R)-2-(3-cyano-azetidin-1-yl)-1-methyl-2-oxo-ethyl]-amide]	2.08 nM
C[C@@H](NC(=O)c1c[nH]c2ncc(-c3nn(CC#N)c4cc(Cl)ccc34)nc12)C(=O)N1CC(C#N)C1 [Example I-93, 2-(6-Chloro-1-cyanomethyl-1H-indazol-3-yl)-5H-pyrrolo[2,3-b]pyrazine-7-carboxylic acid [(R)-2-(3-cyano-azetidin-1-yl)-1-methyl-2-oxo-ethyl]-amide]	0.775 nM
